For this experiment, the target named is T1, human EP4 receptor (Homo sapiens, UniProt P35408).
T1 construct: expressed in transfected cells; host or cells: Chinese Hamster Ovary (CHO) cells infected with recombinant Semliki Forest Virus (SFV-1) particles; membranes prepared from these cells
Kind of experiment: Human EP4 Scintillation Proximity Assay (radioligand binding). As to conditions: membranes of CHO cells expressing human EP4 receptor; [3H]-prostaglandin E2 radioligand; pKi from IC50 by Cheng-Prusoff; read-out: pKI at EP4 receptors (converted). The procedure: Quantification of radioligand binding by scintillation proximity assay (SPA) is a long-established principle. Briefly, the affinity of compounds for a receptor is assessed by the specific competition between known quantities of radiolabelled ligand and compound for that receptor. Increasing concentrations of compound reduce the amount of radiolabel that binds to the receptor. This gives rise to a diminishing scintillation signal from SPA beads coated with membranes that bear the receptor. The signal may be detected with a suitable scintillation counter and the data generated may be analysed with suitable curve-fitting software.
The human EP4 SPA assay (hereafter referred to as ‘the assay’) utilises membranes prepared from Chinese Hamster Ovary (CHO cells) infected with Semliki Forest Virus (SFV). Genetically engineered SFV-1 viral particles containing the genetic sequence of the human EP4 receptor were used to infect CHO cells resulting in expression of the receptor protein in cellular membranes. Cells washed free of media are homogenised in a pH-buffered medium containing peptidase inhibitors. A suitable buffer is of the following composition: 50 mM HEPES, 1 mM EDTA, 25 μg/ml bacitracin, 100 μM leupeptin, 1 mM PMSF, 2 μM Pepstatin A, pH adjusted to 7.4 with KOH. Following removal of cell debris by a low-speed centrifugation, a pellet of membranes is prepared by a high-speed (48000 g) centrifugation of the resulting supernatant. Membrane suspensions such as that described may be stored at −80° C. until used.
For assay, membranes expressing human EP4 receptors are diluted in a pH-buffered medium and mixed with SPA beads coated with a suitable substance to facilitate the adhesion of membranes to the beads. The concentrations of membrane protein and SPA beads chosen should result in SPA binding signal of at least 300 corrected counts per minute (CCPM) when tritiated radioligand at a concentration close to its Kd (affinity value) is combined with the mixture. Non-specific binding (nsb) may be determined by competition between the radiolabelled ligand and a saturating concentration of unlabelled ligand. In order to quantify the affinity of EP4 receptor ligands, compounds are diluted in a stepwise manner across the wells of a 96-well plate. Radioligand, compound, and unlabelled ligand are then added to a 96-well plate suitable for the measurement of SPA binding signals prior to the addition of bead/membrane mixture to initiate the binding reaction. Equilibrium may be achieved by incubation at room temperature for 120 minutes prior to scintillation counting. The data so generated may be analysed by means of a computerised curve-fitting routine in order to quantify the concentration of compound that displaces 50% of the specific radioligand binding (IC50). The affinity (pKi) of the compound may be calculated from the IC50 by application of the Cheng-Prusoff correction. Suitable reagents and protocols are: reaction buffer containing 50 mM HEPES, 10 mM MgCl2, pH adjusted to 7.4 with KOH; SPA beads coated with wheatgerm agglutinin; 1.25 nM [^3H]-prostaglandin E2 as radioligand; 10 μM prostaglandin E2 as unlabelled ligand; a three-fold dilution series of compound starting at 10 μM and ending at 0.3 nM is adequate.
For orientation: In a scintillation proximity assay essentially only radioactivity close to the scintillant gives light.

The source of these data is patent US6924297B2, “Naphathalene derivatives which bind to the EP4 receptor” (SmithKline Beecham Corporation, priority 2000, dated 2005).

Each structure is given as a SMILES string. Bounds are passed on as bounds.

T1 sequence (P35408 whole entry): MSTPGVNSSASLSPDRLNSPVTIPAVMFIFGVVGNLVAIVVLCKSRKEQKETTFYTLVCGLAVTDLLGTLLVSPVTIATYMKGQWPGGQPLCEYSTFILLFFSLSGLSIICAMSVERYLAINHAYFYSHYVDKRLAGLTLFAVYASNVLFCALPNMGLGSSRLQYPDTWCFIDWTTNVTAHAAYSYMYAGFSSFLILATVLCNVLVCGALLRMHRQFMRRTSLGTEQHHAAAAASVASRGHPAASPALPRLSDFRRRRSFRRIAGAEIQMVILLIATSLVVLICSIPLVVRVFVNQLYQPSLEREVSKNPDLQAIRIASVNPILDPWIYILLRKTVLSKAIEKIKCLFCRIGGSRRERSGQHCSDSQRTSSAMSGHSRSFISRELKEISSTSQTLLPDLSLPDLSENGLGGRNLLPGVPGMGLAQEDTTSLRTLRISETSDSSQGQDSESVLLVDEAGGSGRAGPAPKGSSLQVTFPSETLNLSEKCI

Turning to `CCOc1c2c(c(OCC)c3ccccc13)C(=O)N(c1ccc(CS(=O)(=O)NC(=O)C(Cl)c3ccccc3)cc1)C2=O` (stereo not drawn) [Example 75], the Ki was not above 100 nM. Next, `CCOc1c2c(c(OCC)c3ccccc13)C(=O)N(c1ccc(CS(=O)(=O)NC(=O)Cc3cccc(OC)c3)cc1)C2=O` [Example 63]: not above 100 nM. Next, `CCOc1c2c(c(OCC)c3ccccc13)C(=O)N(c1ccc(CS(=O)(=O)NC(=O)Cc3ccc4ccccc4c3)cc1)C2` [Example 48]: not above 100 nM; `CCOc1c2c(c(OCC)c3ccccc13)C(=O)N(c1ccc(CS(=O)(=O)NC(=O)Cc3ccccc3C)cc1)C2` [Example 21]: not above 100 nM. Next, `CCOc1c2c(c(OCC)c3ccccc13)C(=O)N(c1ccc(CS(=O)(=O)NC(=O)Cc3cccc(F)c3)cc1)C2=O` [Example 65]: not above 100 nM; `CCOc1c2c(c(OCC)c3ccccc13)C(=O)N(c1ccc(CS(=O)(=O)NC(=O)Cc3cc(OC)cc(OC)c3)cc1)C2` [Example 83]: not above 100 nM; `CCOc1c2c(c(OCC)c3ccccc13)C(=O)N(c1ccc(CS(=O)(=O)NC(=O)C(CC)c3ccccc3)cc1)C2=O` (stereo not drawn) [Example 64]: not above 100 nM. On to `CCOc1c2c(c(OCC)c3ccccc13)C(=O)N(c1ccc(CS(=O)(=O)NC(=O)Cc3ccccc3CC(=O)OC)cc1)C2` [Example 47], for which the Ki was not above 100 nM.

For `CCOc1c2c(c(OCC)c3ccccc13)C(=O)N(c1ccc(CS(=O)(=O)NC(=O)Cc3ccc(OC(F)(F)F)cc3)cc1)C2` [Example 80], the Ki is not above 100 nM. Next, `CCOc1c2c(c(OCC)c3ccccc13)C(=O)N(c1ccc(CS(=O)(=O)NC(=O)Cc3ccc4c(c3)OCO4)cc1)C2` [Example 84]: not above 100 nM; `CCOc1c2c(c(OCC)c3ccccc13)C(=O)N(c1ccc(CS(=O)(=O)NC(=O)Cc3ccccc3F)cc1)C2` [Example 32]: not above 100 nM. Then `CCOc1c2c(c(OCC)c3ccccc13)C(=O)N(c1ccc(CS(=O)(=O)NC(=O)C(C)c3ccc4cc(OC)ccc4c3)cc1)C2` (stereo not drawn) [Example 86], with not above 100 nM; and `CCOc1c2c(c(OCC)c3ccccc13)C(=O)N(c1ccc(CS(=O)(=O)NC(=O)Cc3cccc4ccccc34)cc1)C2=O` [Example 76], with not above 100 nM; and `CCOc1c2c(c(OCC)c3ccccc13)C(=O)N(c1ccc(CS(=O)(=O)NC(=O)Cn3ccc4ccccc43)cc1)C2` [Example 87], with not above 100 nM. Then `CCOc1c2c(c(OCC)c3ccccc13)C(=O)N(c1ccc(CS(=O)(=O)NC(=O)Cc3ccccc3OC)cc1)C2` [Example 31, 1-[4-(4,9-diethoxy-1-oxo-1,3-dihydro-2H-benzo[f]isoindol-2-yl)phenyl]-N-[(2-methoxyphenyl)acetyl]methanesulfonamide], with not above 100 nM.
